Results taken from patent publication US11072637B2, “Walnut oligopeptide powder, preparation method and application thereof” (Sinphar Tian-Li (Hangzhou) Pharmacy Company Limited, priority 2016, dated 2021).

Columns and labels:
Type in all cases: biochemical
Conditions in all cases: 100 μg/mL
[1] = SRSA superoxide anion free radical scavenging experiment
Method: 3. SRSA Superoxide Anion Free Radical Scavenging Experiment: 3.1 Preparation of 0.1 moL/L PBS buffer solution (pH 7.4): 80 g of sodium chloride, 2 g of potassium chloride, 2.4 g of monopotassium phosphate and 23.1 g of dipotassium hydrogen phosphate trihydrate were weighted and placed in 1000 ml beaker, adding 600 ml of distilled water, stirring to dissolve, and adjusting the pH to […] with hydrochloric acid or sodium hydroxide, transferring into 1000 ml volumetric flask, adding distilled water to dilute to the scale, shaking evenly, and standing for later use. […] 3.7 Operation steps: accurately sucking 0.5 ml of test solution and 5 ml of the working solution, and uniformly mixing; accurately sucking 0.5 ml of test solution and 5 ml of distilled water, and uniformly mixing; accurately sucking 5 ml of the working solution and 0.5 ml of distilled water, and uniformly mixing, the absorbance was determined immediately at 560 nm, and the free radical scavenging rate was calculated according to the following formula: IR%=[1−(Ai−Aj)/A0]*100%; in which, Ai represents the absorbance of the mixture of the test solution and […], Aj represents the absorbance of the mixture of the test solution and the solvent; and A0 represents the absorbance of the mixture of SRSA and solvent. […]

[2] = ABTS+ free radical scavenging experiment
Method: 2. ABTS^+ Free Radical Scavenging Experiment: 2.1 Preparation of PBS buffer solution: weighing 8 g of sodium chloride, 0.2 g of potassium chloride, 0.24 g of monopotassium phosphate, and 3.62 g of disodium hydrogen phosphate dodecahydrate and putting them into a 1000 ml beaker, adding 800 ml of distilled water, stirring to dissolve, and adjusting the pH value to 7.4 by using hydrochloric acid or sodium hydroxide, transferring into a 1000 ml volumetric flask, adding distilled water to dilute, shaking evenly, and standing for later use. […] 2.5 Operation steps: accurately sucking 0.5 ml of test solution and 5 ml of ABTS working solution, and mixing uniformly; accurately sucking 0.5 ml of test solution and 5 ml of PBS buffer solution, and mixing uniformly; accurately sucking 5 ml of ABTS working solution and 0.5 ml of PBS buffer solution, and mixing uniformly, the absorbance was measured immediately at 734 nm, and the free radical removal rate was calculated according to the following formula: IR%=[1−(Ai−Aj)/A0]*100%; in which, Ai represents the absorbance of the mixture of the test solution and ABTS, Aj represents the absorbance of the mixture of the test solution and solvent, and A0 represents the absorbance of the mixture of ABTS and solvent. […]

[3] = DPPH free radical scavenging experiment
Method: 1. DPPH Free Radical Scavenging Experiment: 1.1 Preparation of DPPH ethanol solution: precisely weighing 4 mg of […], putting into a 100 ml brown volumetric flask, and adding 50 ml of ethanol, the ultrasonic treatment was carried out for 30 seconds, ethanol was used for fixing the volume to scale, shaking, and the product needs to be freshly prepared when needed. 1.2 Preparation of test solution: precisely weighing 10 mg of walnut oligopeptide powder, and putting into a 50 ml brown volumetric flask, adding 30 ml of ethanol, carrying out ultrasonic treatment for 5 minutes, diluting with ethyl alcohol for fixing the volume to scale, and shaking. […]

O=C1O[C@H]([C@@H](O)CO)C(O)=C1O [Vitamin C]
SRSA scavenging rate % [1]: 80.1%
ABTS^+ scavenging rate % [2]: 98.1%
DPPH scavenging rate % [3]: 97.2%
